Measurements as given in patent publication US6620828B2, “Thiazole compounds and pharmaceutical compositions for inhibiting protein kinases and methods for their use” (Agouron Pharmaceuticals, Inc., priority 1999, dated 2003).

Experiments:
Assay type in all cases: biochemical
[1] = biological target: T1, unphosphorylated VEGF-R2Δ50 (FLVK) (Homo sapiens, UniProt P35968, DEL940-989/E990V); assay: VEGF-R2 coupled spectrophotometric assay, unphosphorylated enzyme (FLVK); details: Table 3; for Ki: some entries 'Slow binder'; for inhibition at 0.05 µM: at 50 nM
T1 construct: VEGF-R2Δ50 contains residues 806-939 and 990-1171; made in house; host or cells: baculovirus/insect cells
Description: VEGF-R2 Construct for Assay: This construct determines the ability of a test compound to inhibit tyrosine kinase activity. A construct (VEGF-R2Δ50) of the cytosolic domain of human vascular endothelial growth factor receptor 2 (VEGF-R2) lacking the 50 central residues of the 68 residues of the kinase insert domain was expressed in a baculovirus/insect cell system. Of the 1356 residues of full-length VEGF-R2, VEGF-R2Δ50 contains residues 806-939 and 990-1171, and also one point mutation (E990V) within the kinase insert domain relative to wild-type VEGF-R2. Autophosphorylation of the purified construct was performed by incubation of the enzyme at a concentration of 4 μM in the presence of 3 mM ATP and 40 mM MgCl2 in 100 mM Hepes, pH 7.5, containing 5% glycerol and 5 mM DTT, at 4° C. for 2 h. […] See Parast et al., Biochemistry, 37, 16788-16801 (1998).
The production of ADP from ATP that accompanies phosphoryl transfer was coupled to oxidation of NADH using phosphoenolpyruvate (PEP) and a system having pyruvate kinase (PK) and lactic dehydrogenase (LDH). The oxidation of NADH was monitored by following the decrease of absorbance at 340 nm (e340=6.22 cm^−1 mM^−1) using a Beckman DU 650 spectrophotometer. Assay conditions for phosphorylated VEGF-R2Δ50 (indicated as FLVK-P in the tables below) were the following: 1 mM PEP; 250 μM NADH; 50 units of LDH/mL; 20 units of PK/mL; 5 mM DTT; 5.1 mM poly(E4Y1); 1 mM ATP; and 25 mM MgCl2 in 200 mM Hepes, pH 7.5. Assay conditions for unphosphorylated VEGF-R2Δ50 (indicated as FLVK in the tables) were the following: 1 mM PEP; 250 μM NADH; 50 units of LDH/mL; 20 units of PK/mL; 5 mM DTT; 20 mM poly(E4Y1); 3 mM ATP; and 60 mM MgCl2 and 2 mM MnCl2 in 200 mM Hepes, pH 7.5. Assays were initiated with 5 to 40 nM of enzyme. Ki values were determined by measuring enzyme activity in the presence of varying concentrations of test compounds. The data were analyzed using Enzyme Kinetic and Kaleidagraph software.

[2] = biological target: T2, FL-CHK1 (Homo sapiens, UniProt O14757); assay: CHK1 assay; details: 20 μM; combinatorial library compounds
T2 construct: C-terminally His-tagged full-length human CHK1 (FL-CHK1); 6xHis (C); made in house; host or cells: baculovirus/insect cells
T2 sequence (O14757 1-476): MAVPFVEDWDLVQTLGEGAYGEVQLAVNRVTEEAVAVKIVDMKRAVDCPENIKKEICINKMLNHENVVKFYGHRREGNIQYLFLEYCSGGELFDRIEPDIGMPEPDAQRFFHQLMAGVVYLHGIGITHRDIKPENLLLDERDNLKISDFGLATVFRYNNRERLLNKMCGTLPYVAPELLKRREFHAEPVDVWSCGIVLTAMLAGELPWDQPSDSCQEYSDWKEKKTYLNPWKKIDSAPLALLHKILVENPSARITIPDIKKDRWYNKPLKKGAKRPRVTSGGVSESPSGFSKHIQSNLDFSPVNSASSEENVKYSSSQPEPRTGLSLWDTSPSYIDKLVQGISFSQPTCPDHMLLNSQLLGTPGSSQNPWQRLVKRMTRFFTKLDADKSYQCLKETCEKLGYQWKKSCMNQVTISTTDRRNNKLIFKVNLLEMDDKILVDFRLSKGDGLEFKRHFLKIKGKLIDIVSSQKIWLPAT
Method in brief: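 Full-length human CHK1 with C-terminal 6×His tag, made in baculovirus/insect cells, 10 nM, phosphorylating 0.125 mM Syntide-2 with 0.15 mM ATP in 50 mM Tris pH 7.5, 25 mM MgCl2, 400 mM NaCl. PK/LDH-coupled NADH oxidation read at 340 nm. Ki from initial rates over varied compound concentrations.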

[3] = biological target: CDK2/Cyclin A complex (Homo sapiens, UniProt P24941); assay: CDK2/Cyclin A assay; details: 1.0 μM; combinatorial library compounds
Method in brief: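 Radiometric assay: 150 nM CDK2/cyclin A (insect-cell CDK2, truncated cyclin A) phosphorylates His-tagged Rb fragment (residues 386-928) with 25 μM ATP plus [32P]ATP, pH 7.4 HEPES, 2% DMSO, 30 °C for 20 min. Filter-captured product counted by phosphorimager; apparent Ki from competitive or tight-binding inhibition fits.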

[4] = biological target: T3, CDK4/Cyclin D3 complex (Homo sapiens, UniProt P11802); assay: CDK4/Cyclin D assay; details: 1.0 μM; combinatorial library compounds
T3 construct: made in house; host or cells: insect cells co-infected with baculovirus vectors
Method in brief: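 Insect-cell-expressed CDK4/cyclin D3 (50 nM) phosphorylating His-tagged Rb fragment (residues 386-928) with 25 μM [^32P]ATP in HEPES pH 7.4, MgCl2, 2% DMSO; 20 min at 30 °C, EDTA stop. Filter-captured 32P by phosphorimager; apparent Ki from competitive or tight-binding inhibition fits.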

[5] = biological target: T4, phosphorylated VEGF-R2Δ50 (FLVK-P) (Homo sapiens, UniProt P35968, DEL940-989/E990V); assay: VEGF-R2 coupled spectrophotometric (FLVK-P) assay; details: combinatorial library compounds; for inhibition at 20 µM: read-out: VEGF % inhibition at 20 μM, 20 μM
T4 construct: VEGF-R2Δ50 contains residues 806-939 and 990-1171; made in house; host or cells: baculovirus/insect cells
Method in brief: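 Baculovirus-expressed human VEGF-R2Δ50 (residues 806-939/990-1171, E990V) was autophosphorylated with 3 mM ATP, 40 mM MgCl2 for 2 h at 4° C. ADP formation was coupled via PK/LDH to NADH oxidation, read at 340 nm, with 5.1 mM poly(E4Y1), 1 mM ATP, 25 mM MgCl2, Hepes pH 7.5. Ki came from activity across compound concentrations.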

T4 sequence (P35968 with tags, fused parts or gaps DEL940-989/E990V limits assumed): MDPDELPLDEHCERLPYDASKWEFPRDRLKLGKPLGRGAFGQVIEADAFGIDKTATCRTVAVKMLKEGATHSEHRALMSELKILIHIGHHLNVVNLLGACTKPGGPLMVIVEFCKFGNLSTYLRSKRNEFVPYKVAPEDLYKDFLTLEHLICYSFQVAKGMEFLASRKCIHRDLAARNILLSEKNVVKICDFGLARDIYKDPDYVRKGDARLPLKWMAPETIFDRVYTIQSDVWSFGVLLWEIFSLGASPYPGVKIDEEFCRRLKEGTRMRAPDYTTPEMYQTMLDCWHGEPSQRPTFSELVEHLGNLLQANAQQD
T1 sequence (P35968 with tags, fused parts or gaps DEL940-989/E990V limits assumed): as above
T3 sequence (P11802 whole entry): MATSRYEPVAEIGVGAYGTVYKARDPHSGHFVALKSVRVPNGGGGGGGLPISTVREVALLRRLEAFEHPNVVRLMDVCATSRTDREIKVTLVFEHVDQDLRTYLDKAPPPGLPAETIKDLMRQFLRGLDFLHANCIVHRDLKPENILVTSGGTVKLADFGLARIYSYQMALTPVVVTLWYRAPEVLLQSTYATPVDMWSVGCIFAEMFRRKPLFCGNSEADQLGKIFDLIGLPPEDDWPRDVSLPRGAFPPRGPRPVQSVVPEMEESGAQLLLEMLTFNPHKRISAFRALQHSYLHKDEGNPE
T3 sequence (P30281 whole entry partner): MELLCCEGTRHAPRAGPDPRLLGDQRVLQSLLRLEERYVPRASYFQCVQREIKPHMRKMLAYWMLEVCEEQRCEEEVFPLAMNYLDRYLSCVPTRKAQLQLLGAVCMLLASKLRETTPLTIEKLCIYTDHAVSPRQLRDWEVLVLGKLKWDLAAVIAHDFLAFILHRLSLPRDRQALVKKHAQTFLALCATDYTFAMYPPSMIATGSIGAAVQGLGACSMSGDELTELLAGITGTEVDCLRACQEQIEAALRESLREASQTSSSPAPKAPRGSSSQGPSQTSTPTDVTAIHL

Structure (SMILES) | CHK1 % Inhibition at 20 μM [2] | inhibition at 20 µM [5] | CDK2 % Inhibition at 1.0 μM [3] | CDK4 % Inhibition at 1.0 μM [4] | VEGF % inhibition at 20 μM [5] | other results
Cc1ccc(NC(=O)C(O)CC(C)C)cc1-c1noc(-c2sc(Nc3cccc(CN4CCCC4)c3)nc2N)n1 (racemic) [B(11), (R,S)-3-[3-(2-hydroxy-4-methylpentanoyl)amino]-6-methylphenyl]-5-[2-(3-methylpyrrolidinephenyl)amino]-4-amino-5-thiazolyl]-1,2,4 oxadiazole] |  |  |  |  |  | Ki [1]: 0.7 nM
COc1cc(Nc2nc(N)c(-c3nc(-c4cc(NC(=O)OC(C)(C)C)ccc4F)no3)s2)cc(OC)c1OC [B(5), 3-(3-(tert-butyloxycarboxyamino)-6-fluoro-phenyl)-5-[2-[(3,4,5-trimethoxyphenyl)amino]-4-amino-5-thiazolyl]-1,2,4-oxadiazole] |  |  |  |  |  | Ki [1]: 2.3 nM
COc1cccc(C(=O)Nc2ccc(C)c(-c3noc(-c4sc(Nc5ccc(N(C)C)cc5)nc4N)n3)c2)c1 [B(7), 3-[3-[(3-methoxybenzoyl)amino]-6-methyl-phenyl]-5-[2-[4-(N,N-dimethylaminophenyl)amino]-4-amino-5-thiazolyl]-1,2,4-oxadiazole] |  |  |  |  |  | inhibition at 0.05 µM [1]: 61%
CCn1nc(C)cc1C(=O)Nc1ccc(C)c(-c2noc(-c3sc(Nc4cccc(CO)c4)nc3N)n2)c1 [B(8)] |  |  |  |  |  | Ki [1]: 0.1 nM
CCn1nc(C)cc1C(=O)Nc1ccc(C)c(-c2noc(-c3sc(Nc4ccc(CN5CCCC5)cc4)nc3N)n2)c1 [B(10)] |  |  |  |  |  | Ki [1]: 0.13 nM
COc1cccc(C(=O)Nc2cc(-c3noc(-c4sc(NC(C)C)nc4N)n3)c(F)cc2F)c1 [B(19), N-{5-[5-(4-Amino-2-isopropylamino-thiazol-5-yl)-[1,2,4]oxadiazol-3-yl]-2,4-difluoro-phenyl}-3-methoxy-benzamide] |  |  |  |  |  | inhibition at 0.05 µM [1]: 36%
Cc1c(-c2csc(-c3sc(Nc4ccc(S(N)(=O)=O)cc4)nc3N)n2)sc2ccc(Cl)cc12 [drawing 424] | 28.4% | 23% |  |  |  | inhibition at 1 µM [3]: 67%; inhibition at 1 µM [4]: 59.9%
COc1ccc(-c2csc(-c3sc(Nc4ccc(S(N)(=O)=O)cc4)nc3N)n2)cc1 [drawing 425] | 10.7% |  | 54.2% | 40.9% | 11% | 
Cc1c(-c2csc(-c3sc(Nc4ccc(S(N)(=O)=O)cc4)nc3N)n2)sc2ccc(Cl)cc12 [drawing 426] | 9.7% |  | 56% | 70.6% | 19% | 
Nc1nc(Nc2ccc(S(N)(=O)=O)cc2)sc1-c1nc(-c2ccccc2)cs1 [drawing 435] | 12.3% |  | 60.8% | 43.3% | 34% | 
Cc1c(F)cc(-c2csc(-c3sc(Nc4ccc(S(N)(=O)=O)cc4)nc3N)n2)cc1Cl [drawing 440] |  | 5% |  |  |  | inhibition at 20 µM [2]: 21.1%; inhibition at 1 µM [3]: 68%; inhibition at 1 µM [4]: 75%
Nc1nc(Nc2ccc(S(N)(=O)=O)cc2)sc1-c1nc(-c2ccc(F)cc2F)cs1 [drawing 445] |  | 40% |  |  |  | inhibition at 20 µM [2]: 21.6%; inhibition at 1 µM [3]: 74.1%; inhibition at 1 µM [4]: 58.2%
COc1ccc(-c2csc(-c3sc(Nc4ccc(C(C)C)cc4)nc3N)n2)cc1 [drawing 462] | 4.7% | 19% |  |  |  | inhibition at 1 µM [3]: 27.8%; inhibition at 1 µM [4]: 60.9%
CC(C)c1ccc(Nc2nc(N)c(-c3nc(-c4ccccc4)cs3)s2)cc1 [drawing 484] | 4% |  |  | −42.5% | −4% | inhibition at 1 µM [3]: 23.3%
Cc1c(-c2csc(-c3sc(Nc4ccc(C(C)C)cc4)nc3N)n2)sc2ccc(Cl)cc12 [drawing 487] |  | 47% |  |  |  | inhibition at 20 µM [2]: 32.3%; inhibition at 1 µM [3]: 38.6%; inhibition at 1 µM [4]: 79.6%
COc1ccc(-c2csc(-c3sc(Nc4ccc(C(C)C)cc4)nc3N)n2)cc1 [drawing 488] | 14.2% |  | 38.3% | 79% | 12% | 

The next lines start with results.

CHK1 % Inhibition at 20 μM [2] | inhibition at 20 µM [5] | CDK2 % Inhibition at 1.0 μM [3] | CDK4 % Inhibition at 1.0 μM [4] | VEGF % inhibition at 20 μM [5] | Structure (SMILES) | other results
17.8% |  | 31% | 79.9% | 42% | Cc1c(-c2csc(-c3sc(Nc4ccc(C(C)C)cc4)nc3N)n2)sc2ccc(Cl)cc12 [drawing 489] | 
0.2% |  | 18.5% | 59.4% | 22% | CC(C)c1ccc(Nc2nc(N)c(-c3nc(-c4ccccc4)cs3)s2)cc1 [drawing 498] | 
2.7% | 13% | 6.1% | 19.1% |  | COc1ccc(-c2csc(-c3sc(Nc4ccc(N(C)C)cc4)nc3N)n2)cc1 [drawing 525] | 
 | 17% |  | −48.3% |  | CN(C)c1ccc(Nc2nc(N)c(-c3nc(-c4ccccc4)cs3)s2)cc1 [drawing 547] | inhibition at 20 µM [2]: 13.1%; inhibition at 1 µM [3]: 17.2%
 | 31% | 17.1% |  |  | Cc1c(-c2csc(-c3sc(Nc4ccc(N(C)C)cc4)nc3N)n2)sc2ccc(Cl)cc12 [drawing 550] | inhibition at 20 µM [2]: 41.9%; inhibition at 1 µM [4]: 64.3%
34.8% |  | 29.8% | 83% | 23% | COc1ccc(-c2csc(-c3sc(Nc4ccc(N(C)C)cc4)nc3N)n2)cc1 [drawing 551] | 
26.8% |  | 37.3% | 65.1% | 29% | Cc1c(-c2csc(-c3sc(Nc4ccc(N(C)C)cc4)nc3N)n2)sc2ccc(Cl)cc12 [drawing 552] | 
17.5% |  | 19.7% | 65.1% | 30% | CN(C)c1ccc(Nc2nc(N)c(-c3nc(-c4ccccc4)cs3)s2)cc1 [drawing 561] | 
